Laboratory results as given in patent publication US11434242B2, “Dopamine-b-hydroxylase inhibitors” (BIAL-PORTELA & Cª, S.A., priority 2017, dated 2022).
Marks after values point to notes of the source that are not given here.

Target: T1, Dopamine beta hydroxylase (Homo sapiens, UniProt P09172)
T1 construct: 125 μl of plasma; tissue Instituto Português do Sangue Transplantação; host or cells: human plasma from healthy donors
T1 sequence (P09172 40-617 limits assumed): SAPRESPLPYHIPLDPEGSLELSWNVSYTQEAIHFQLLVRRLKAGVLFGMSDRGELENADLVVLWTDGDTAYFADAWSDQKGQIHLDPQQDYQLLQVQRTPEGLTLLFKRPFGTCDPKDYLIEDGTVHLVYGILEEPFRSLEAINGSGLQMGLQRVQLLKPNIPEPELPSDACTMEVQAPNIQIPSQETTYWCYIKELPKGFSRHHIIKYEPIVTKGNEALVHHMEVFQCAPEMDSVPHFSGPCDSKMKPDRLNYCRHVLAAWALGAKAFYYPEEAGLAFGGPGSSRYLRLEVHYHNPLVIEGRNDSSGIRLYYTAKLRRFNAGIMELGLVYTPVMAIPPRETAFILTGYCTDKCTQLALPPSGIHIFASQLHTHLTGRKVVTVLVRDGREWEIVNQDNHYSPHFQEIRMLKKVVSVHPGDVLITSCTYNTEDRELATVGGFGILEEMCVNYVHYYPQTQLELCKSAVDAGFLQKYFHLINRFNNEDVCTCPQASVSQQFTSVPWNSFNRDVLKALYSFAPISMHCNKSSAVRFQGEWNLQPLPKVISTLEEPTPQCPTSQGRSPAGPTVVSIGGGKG
Experiment: Dopamine beta hydroxylase activity in human plasma
Assay type: biochemical
Details: for Plasma (1 μM), activity in % of control: inhibitor 1 μM
Summary of the method: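 Healthy-donor human plasma pre-incubated 10 min at 37° C with compound at final 10, 100 or 1000 nM in pH 5.0 acetate buffer with ascorbate, fumarate, pargyline, N-ethylmaleimide, catalase and copper sulfate. Tyramine substrate then added for 45 min; octopamine formed was isolated by SCX cartridge, periodate-converted and read at 330 nm; activity given as % control.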

Plasma (0.01 μM), activity in % of control (inhibitor 0.01 μM)	Plasma (0.1 μM), activity in % of control (inhibitor 0.1 μM)	Plasma (1 μM), activity in % of control	Plasma (0.01 μM), activity in % of control, re-test (asterisked) (inhibitor 0.01 μM, re-tested under the same experimental conditions, asterisked data believed to be correct)	Plasma (0.1 μM), activity in % of control, re-test (asterisked) (inhibitor 0.1 μM, re-tested under the same experimental conditions, asterisked data believed to be correct)	Structure (SMILES)
42.1 % of control	7.3 % of control	–	–	–	CN1CC(NC(=O)Cc2c3n(c(=S)n2C)C[C@H](c2c(F)ccc(Br)c2F)C3)CCC1=O (stereo partly drawn) [Example 457, 2-((S)-6-(3-bromo-2,6-difluorophenyl)-2-methyl-3-thioxo-2,5,6,7-tetrahydro-3H-pyrrolo[1,2-c]imidazol-1-yl)-N-(1-methyl-6-oxopiperidin-3-yl)acetamide]
25.3 % of control	2.2 % of control	–	–	–	CN(Cc1cnn(C)c1)C(=O)Cc1c2n(c(=S)n1C)C[C@H](c1c(F)ccc(Cl)c1F)C2 [Example 430, (S)-2-(6-(3-chloro-2,6-difluorophenyl)-2-methyl-3-thioxo-2,5,6,7-tetrahydro-3H-pyrrolo[1,2-c]imidazol-1-yl)-N-methyl-N-((1-methyl-1H-pyrazol-4-yl)methyl)acetamide]
96.9 % of control	47.8 % of control	–	–	–	O=C(Cc1[nH]c(=S)n2c1C[C@H](c1c(F)c(F)cc(F)c1F)C2)NC[C@@H]1CCCO1 [Example 395, 2-((R)-6-(2,3,5,6-tetrafluorophenyl)-3-thioxo-2,5,6,7-tetrahydro-3H-pyrrolo[1,2-c]imidazol-1-yl)-N—(((S)-tetrahydrofuran-2-yl)methyl)acetamide]
102.6 % of control	42.3 % of control	–	–	–	O=C(O)Cc1[nH]c(=S)n2c1C[C@@H](c1c(F)ccc(Cl)c1F)C2 [Example 407, (S)-2-(6-(3-chloro-2,6-difluorophenyl)-3-thioxo-2,5,6,7-tetrahydro-3H-pyrrolo[1,2-c]imidazol-1-yl)acetic acid]
39.7 % of control	1.7 % of control	–	–	–	Cn1c(CC(=O)NC2CCCCC2)c2n(c1=S)C[C@@]1(c3cc(Br)ccc3F)C[C@@H]21 [Example 294, 2-((5aS,6aR)-5a-(5-bromo-2-fluorophenyl)-2-methyl-3-thioxo-2,3,5,5a,6,6a-hexahydrocyclopropa[3,4]pyrrolo[1,2-c]imidazol-1-yl)-N-cyclohexylacetamide]
104.8 % of control	86.0 % of control	–	–	–	CN(CCO)C(=O)Cc1c2n(c(=S)n1C)C[C@@H](c1c(F)ccc(F)c1F)C2 [Example 293, (R)—N-(2-hydroxyethyl)-N-methyl-2-(2-methyl-3-thioxo-6-(2,3,6-trifluorophenyl)-2,5,6,7-tetrahydro-3H-pyrrolo[1,2-c]imidazol-1-yl)acetamide]
79.3 % of control	34.7 % of control	–	–	–	CC(C)NC(=O)Cc1c2n(c(=S)n1C)C[C@@]1(c3cc(Cl)ccc3F)C[C@@H]21 [Example 303, 2-((5aS,6aR)-5a-(5-chloro-2-fluorophenyl)-2-methyl-3-thioxo-2,3,5,5a,6,6a-hexahydrocyclopropa[3,4]pyrrolo[1,2-c]imidazol-1-yl)-N-isopropylacetamide]
80.2 % of control	34.8 % of control	–	41.9* % of control	1.4* % of control	Cn1c(CC(=O)NC2CCOCC2)c2n(c1=S)C[C@@]1(c3cc(Br)ccc3F)C[C@@H]21 [Example 314, 2-((5aS,6aR)-5a-(5-bromo-2-fluorophenyl)-2-methyl-3-thioxo-2,3,5,5a,6,6a-hexahydrocyclopropa[3,4]pyrrolo[1,2-c]imidazol-1-yl)-N-(tetrahydro-2H-pyran-4-yl)acetamide]

More lines, now with the values behind:

Structure (SMILES)	Plasma (0.01 μM), activity in % of control (inhibitor 0.01 μM)	Plasma (0.1 μM), activity in % of control (inhibitor 0.1 μM)	Plasma (1 μM), activity in % of control	Plasma (0.01 μM), activity in % of control, re-test (asterisked) (inhibitor 0.01 μM, re-tested under the same experimental conditions, asterisked data believed to be correct)	Plasma (0.1 μM), activity in % of control, re-test (asterisked) (inhibitor 0.1 μM, re-tested under the same experimental conditions, asterisked data believed to be correct)
O=C(CCc1[nH]c(=S)n2c1C[C@H](c1c(F)c(F)cc(F)c1F)C2)N1CCCCC1 [Example 207, (R)-1-(piperidin-1-yl)-3-(6-(2,3,5,6-tetrafluorophenyl)-3-thioxo-2,5,6,7-tetrahydro-3H-pyrrolo[1,2-c]imidazol-1-yl)propan-1-one]	76.6 % of control	30.2 % of control	–	–	–
O=C(Cc1[nH]c(=S)n2c1C[C@@H](c1c(F)ccc(Br)c1F)C2)N1CCCC1 [Example 101, (S)-2-(6-(3-bromo-2,6-difluorophenyl)-3-thioxo-2,5,6,7-tetrahydro-3H-pyrrolo[1,2-c]imidazol-1-yl)-1-(pyrrolidin-1-yl)ethan-1-one]	–	37.2 % of control	3.3 % of control	–	–
O=C(Cc1[nH]c(=S)n2c1C[C@H](c1c(F)ccc(Br)c1F)C2)N1CCC(F)(F)CC1 [Example 117, (R)-2-(6-(3-bromo-2,6-difluorophenyl)-3-thioxo-2,5,6,7-tetrahydro-3H-pyrrolo[1,2-c]imidazol-1-yl)-1-(4,4-difluoropiperidin-1-yl)ethan-1-one]	74.5 % of control	43.0 % of control	–	–	–
N#CN/C(N)=N/Cc1[nH]c(=S)n2c1C[C@@H](c1c(F)ccc(Br)c1F)C2 [Example 224, 2-{[(6S)-6-(3-bromo-2,6-difluorophenyl)-3-thioxo-2,5,6,7-tetrahydro-3H-pyrrolo[1,2-c]imidazol-1-yl]methyl}-1-cyanoguanidine]	22.6 % of control	0.6 % of control	–	–	–
Cn1c(CCC(=O)O)c2n(c1=S)C[C@@H](c1c(F)c(F)cc(F)c1F)C2 [Example 260, (R)-3-(2-methyl-6-(2,3,5,6-tetrafluorophenyl)-3-thioxo-2,5,6,7-tetrahydro-3H-pyrrolo[1,2-c]imidazol-1-yl)propanoic Acid]	84.1 % of control	26.5 % of control	–	–	–
Fc1cc(F)c(F)c([C@H]2Cc3c(CCc4ccncc4)[nH]c(=S)n3C2)c1F [Example 218, (R)-1-(2-(pyridin-4-yl)ethyl)-6-(2,3,5,6-tetrafluorophenyl)-2,5,6,7-tetrahydro-3H-pyrrolo[1,2-c]imidazole-3-thione]	89.2 % of control	69.1 % of control	–	–	–
O=C(Cc1[nH]c(=S)n2c1C[C@H](c1c(F)ccc(Br)c1F)C2)N1CCOCC1 [Example 141, (R)-2-(6-(3-bromo-2,6-difluorophenyl)-3-thioxo-2,5,6,7-tetrahydro-3H-pyrrolo[1,2-c]imidazol-1-yl)-1-morpholinoethan-1-one]	93.2 % of control	76.1 % of control	–	–	–
O=C(Cc1[nH]c(=S)n2c1C[C@H](c1c(F)c(F)cc(F)c1F)C2)NC1CCCC1 [Example 32]	–	46.2 % of control	9.7 % of control	–	–
Cn1c(CCC(=O)N[C@@H]2CCOC2)c2n(c1=S)C[C@@H](c1c(F)ccc(F)c1F)C2 [Example 265, 3-((R)-2-methyl-3-thioxo-6-(2,3,6-trifluorophenyl)-2,5,6,7-tetrahydro-3H-pyrrolo[1,2-c]imidazol-1-yl)-N—((R)-tetrahydrofuran-3-yl)propanamide]	94.9 % of control	70.6 % of control	–	–	–
O=C(Cc1[nH]c(=S)n2c1[C@@H]1C[C@]1(c1cc(Br)ccc1F)C2)NC1CCC1 [Example 153, 2-((5aS,6aR)-5a-(5-bromo-2-fluorophenyl)-3-thioxo-2,3,5,5a,6,6a-hexahydrocyclopropa[3,4]pyrrolo[1,2-c]imidazol-1-yl)-N-cyclobutylacetamide]	85.5 % of control	28.4 % of control	–	–	–
CN(C)C(=O)Cc1[nH]c(=S)n2c1C[C@H](c1c(F)c(F)cc(F)c1F)C2 [Example 30, (R)—N,N-dimethyl-2-(6-(2,3,5,6-tetrafluorophenyl)-3-thioxo-2,5,6,7-tetrahydro-3H-pyrrolo[1,2-c]imidazol-1-yl)acetamide]	92.0 % of control	73.2 % of control	–	–	–
CN(CCO)Cc1[nH]c(=S)n2c1C[C@H](c1c(F)c(F)cc(F)c1F)C2.Cl [Example 211, (R)-1-(((2-hydroxyethyl)(methyl)amino)methyl)-6-(2,3,5,6-tetrafluorophenyl)-2,5,6,7-tetrahydro-3H-pyrrolo[1,2-c]imidazole-3-thione hydrochloride]	104.9 % of control	94.8 % of control	–	–	–
O=C(Cc1[nH]c(=S)n2c1C[C@@H](c1c(F)ccc(Br)c1F)C2)NC1CCCC1=O (stereo partly drawn) [Example 34, 2-((S)-6-(3-bromo-2,6-difluorophenyl)-3-thioxo-3,5,6,7-tetrahydro-2H-pyrrolo[1,2-c]imidazol-1-yl)-N-(2-oxocyclopentyl)acetamide]	–	10.4 % of control	0 % of control	–	–
